Reference: PubChem BioAssay AID2060885 (Molecular Pharmacology Branch, DTP, NCI, 2025)

Tested on: NCI-H23 complex spheroids with HUVEC/MSC, viability
Assay: Anticancer human tumor NCI-H23 cell line growth inhibition [RAS];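 also: spheroids exposed to compound for 7 days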;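 as to viability, T/C: 100% = DMSO vehicle control viability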
Details: for IC50: curve of first compound; for viability, T/C: stronger effect = lower value
In short: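 Multi-cell-type spheroids: tumor cells plus HUVEC endothelial cells and mesenchymal stem cells. RAS-pathway inhibitors were combined with targeted agents, each dosed in half-log steps down from clinical Cmax, or from 10 microM when Cmax was unknown.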

`O=C(c1ccc(F)c(F)c1Nc1ccc(I)cc1F)N1CC(O)([C@@H]2CCCCN2)C1` + C=CC(=O)N1CCN(c2nc(OCC3CCCN3C)nc3c(F)c(-c4nc(N)cc(C)c4C(F)(F)F)c(Cl)cc23)C(C)C1 was tested, and the IC50 (second compound 0.00316 µM) was 43.5 nM, the IC50 (second compound 0.01 µM) was 4.49 nM and the IC50 (second compound 0.0316 µM) was under 3.16 nM. It also gave an IC50 (second compound 0.1 µM) of under 3.16 nM, an IC50 (second compound 0.316 µM) of under 3.16 nM and an IC50 (second compound 1 µM) of under 3.16 nM. The viability, T/C (second compound 0.00316 µM, first compound 0.00316 µM) was 58.7%, the viability, T/C (second compound 0.00316 µM, first compound 0.01 µM) was 61% and the viability, T/C (second compound 0.00316 µM, first compound 0.0316 µM) was 52.9%. It also gave a viability, T/C (second compound 0.00316 µM, first compound 0.1 µM) of 40.7%, a viability, T/C (second compound 0.00316 µM, first compound 0.316 µM) of 29.3% and a viability, T/C (second compound 0.00316 µM, first compound 1 µM) of 16.8%. The viability, T/C (second compound 0.01 µM, first compound 0.00316 µM) was 50.9%, the viability, T/C (second compound 0.01 µM, first compound 0.01 µM) was 50.1% and the viability, T/C (second compound 0.01 µM, first compound 0.0316 µM) was 41.1%. The viability, T/C (second compound 0.01 µM, first compound 0.1 µM) was 40%, the viability, T/C (second compound 0.01 µM, first compound 0.316 µM) was 28.6% and the viability, T/C (second compound 0.01 µM, first compound 1 µM) was 14.9%. The viability, T/C (second compound 0.0316 µM, first compound 0.00316 µM) was 44.7%, the viability, T/C (second compound 0.0316 µM, first compound 0.01 µM) was 48.9% and the viability, T/C (second compound 0.0316 µM, first compound 0.0316 µM) was 37.2%. For the same compound, the viability, T/C (second compound 0.0316 µM, first compound 0.1 µM) was 32.4%, the viability, T/C (second compound 0.0316 µM, first compound 0.316 µM) was 24% and the viability, T/C (second compound 0.0316 µM, first compound 1 µM) was 11.8%. The viability, T/C (second compound 0.1 µM, first compound 0.00316 µM) was 37.1%, the viability, T/C (second compound 0.1 µM, first compound 0.01 µM) was 40.2% and the viability, T/C (second compound 0.1 µM, first compound 0.0316 µM) was 33.3%. For the same compound, the viability, T/C (second compound 0.1 µM, first compound 0.1 µM) was 28.9%, the viability, T/C (second compound 0.1 µM, first compound 0.316 µM) was 24% and the viability, T/C (second compound 0.1 µM, first compound 1 µM) was 13.4%. The viability, T/C (second compound 0.316 µM, first compound 0.00316 µM) was 40%, the viability, T/C (second compound 0.316 µM, first compound 0.01 µM) was 37.5% and the viability, T/C (second compound 0.316 µM, first compound 0.0316 µM) was 30.6%. For the same compound, the viability, T/C (second compound 0.316 µM, first compound 0.1 µM) was 28%, the viability, T/C (second compound 0.316 µM, first compound 0.316 µM) was 21.2% and the viability, T/C (second compound 0.316 µM, first compound 1 µM) was 13.7%. The viability, T/C (second compound 1 µM, first compound 0.00316 µM) was 39%, the viability, T/C (second compound 1 µM, first compound 0.01 µM) was 38.4% and the viability, T/C (second compound 1 µM, first compound 0.0316 µM) was 31.4%. For the same compound, the viability, T/C (second compound 1 µM, first compound 0.1 µM) was 32.7%, the viability, T/C (second compound 1 µM, first compound 0.316 µM) was 24.2% and the viability, T/C (second compound 1 µM, first compound 1 µM) was 12.6%.
